A short description of data set [1]: Pharmacokinetic test in monkeys (intravenous). The format is in vivo. As to conditions: male, cynomolgus monkey, i.v. 2 mg/kg, plasma. The procedure:
Experimental animals: male cynomolgus monkeys, 3-5 kg, 3-6 years old, 2 monkeys/compound. Purchased from Suzhou Xishan Biotechnology Inc.
Experimental method: on the day of the test, 2 monkeys were randomly grouped according to their body weights. The animals were fasted with water available for 14 to 18 h one day before the administration of a test compound, and were fed 4 hours after the administration.
Before and after the administration, 1.0 mL of blood samples were drawn from the limb veins and placed in an EDTAK2 centrifuge tube. Centrifugation was carried out at 5000 rpm at 4° C. for 10 min, and the plasma was collected. Blood collection time points for the intravenous group were: 0, 5 min, 15 min, 30 min, 1 h, 2 h, 4 h, 6 h, 8 h, 10 h, 12 h, 24 h, and 48 h. Before analysis and detection, all samples were stored at −80° C., and a quantitative analysis of samples was performed using LC-MS/MS.

The next data set relates to platelet (PLT). Briefly: Effect on platelet (PLT) after single intravenous injection. The format is in vivo, SD rats. Further details: key to Effect on PLT (↓ decrease): — represents that no significant change was observed. The conditions noted are these: for platelet toxicity relative to the control compound: rats. The procedure: Experimental animal: 78 SD rats, with an equal number of males and females, male (♂): 290-380 g, female (♀): 220-290 g, 8-10 weeks old, purchased from Zhejiang Vital River Laboratory Animal Technology Co., Ltd.
Experimental protocol: a clear solution was formulated using a vehicle ([…]). The animals were dosed via tail vein a single time (administration volume: 20 mL/kg; bolus injection period: about 4 minutes; recovery period: 7 days).

The target in a further data set is T1, BCL-xL proteins (Homo sapiens, UniProt Q07817).
T1 construct: degradation effect on the BCL-xL proteins in MOLT-4 cells; host or cells: MOLT-4
T1 sequence (Q07817 whole entry): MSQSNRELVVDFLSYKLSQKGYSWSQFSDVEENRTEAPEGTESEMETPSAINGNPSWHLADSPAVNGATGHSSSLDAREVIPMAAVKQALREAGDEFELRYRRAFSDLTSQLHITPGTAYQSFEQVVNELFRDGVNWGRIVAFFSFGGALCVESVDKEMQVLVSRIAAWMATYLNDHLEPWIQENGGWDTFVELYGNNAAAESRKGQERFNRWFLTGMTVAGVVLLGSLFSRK
Briefly: BCL-xL degradation activity in MOLT-4 cells (western blot, 16 h). The format is cell-based. The procedure: MOLT-4 cells are acute lymphoblastic leukemia cell lines in humans. The cells were purchased from ATCC. Culture conditions: RPMI-1640+10% FBS+1% penicillin-streptomycin solution. The cells were cultured in a 37° C., 5% CO2 incubator. The cells were plated in a 12-well plate, with 2×10^5 cells/well. After plating, compounds at different concentrations were added and cultured in a 37° C., 5% CO2 incubator for 16 h. After the completion of culture, the cells were harvested and RIPA lysis buffer (beyotime, Cat. P0013B) was added. The cells were lysed on ice for 15 minutes and centrifuged at 12000 rpm at 4° C. for 10 minutes. The supernatant protein samples were collected and the protein was quantified by using the BCA kit (Beyotime, Cat. P0009). Then the protein was diluted to 0.8 mg/mL. The expressions of BCL-xL (CST, Cat. 2764S), BCL-2 (CST, Cat. 15071S) and the internal reference β-actin (CST, Cat. 3700S) were detected using a fully automated western blot quantitative analyzer (Proteinsimple). The expression level of BCL-xL or BCL-2 relative to the internal reference was calculated by using Compass software, and the DC50 value was calculated by using GraphPad Prism 8.0 software according to formula (1), wherein the Proteinadministration denoted the relative expression level of BCL-xL or BCL-2 in administration groups at different doses, and the Proteinvehicle denoted the relative expression level of BCL-xL or BCL-2 in the vehicle control group.
Protein %=Proteinadministration/Proteinvehicle×100% formula (1)
(In general: Immunoblotting shows a protein as a band on a membrane.)

In the next data set the test system is MOLT-4 xenograft tumors. The data set can be described thus: Growth inhibition experiment in MOLT-4 xenograft tumor models in mice. The format is in vivo. As to conditions: two-way ANOVA and then Dunnett's test, FIG. 1. The procedure: MOLT-4 cells are acute lymphoblastic leukemia cell lines in humans. The cells were purchased from ATCC and cultured in RPMI-1640+10% FBS+1% o penicillin-streptomycin solution in a 37° C., 5% CO2 incubator. When the cells were in the exponential growth phase, the cells were harvested and counted. An equal volume of matrigel was added. Female SCID Beige mice (4-6 weeks old, 14-16 g, Beijing Vital River Laboratory Animal Technology Co., Ltd.) were inoculated subcutaneously in the right flank with the cells (200 μL, containing 1×10^7 MOLT-4 cells and 50% matrigel). When the tumor volume reached 150-200 mm^3, the mice were randomly grouped for administration according to the tumor volume and body weight of the mice. Three administration dosages were provided: 5 mpk, 15 mpk and 50 mpk. The compounds were injected intraperitoneally (ip) weekly (qw). The mice in all the experimental groups (10 mice in each group) were continuously administered for 4 weeks.
After inoculation, the body weights of the mice were measured three times a week and the long (a) and short (b) diameters of the tumors were measured. The tumor volume was calculated according to the formula: V=ab^2/2. At day 28 after the administration, the experiment was terminated.

As usually defined, the AUC(0-t) is exposure summed from dosing to a finite time, without extrapolation to infinity. As a reminder, the half-life is how long it takes for the measured level to halve. In general, DC50 refers to the concentration at which degradation of the target reaches its halfway point. As for `Cc1ncsc1-c1ccc([C@H](C)NC(=O)[C@@H]2C[C@@H](O)CN2C(=O)[C@@H](NC(=O)CCCCCC(=O)N2CCN(CC[C@H](CSc3ccccc3)Nc3ccc(S(=O)(=O)NC(=O)c4ccc(N5CCN(CC6=C(c7ccc(Cl)cc7)CCCCC6)CC5)cc4)cc3S(=O)(=O)C(F)(F)F)CC2)C(C)(C)C)cc1` [Compound 6, (2S,4R)-1-((S)-2-(7-(4-((R)-3-((4-(N-(4-(4-((2-(4-chlorophenyl)cyclohept-1-en-1-yl)methyl)piperazin-1-yl)benzoyl)sulfamoyl)-2-((trifluoromethyl)sulfonyl)phenyl)amino)-4-(phenylthio)butyl)piperazin-1-yl)-7-oxoheptanamido)-3,3-dimethylbutanoyl)-4-hydroxy-N—((S)-1-(4-(4-methylthiazol-5-yl)phenyl)ethyl)pyrrolidine-2-carboxamide], in data set [1], the AUC(0-t) is 54600 ± 5910 ng·h/mL. The compound further showed a half-life in data set [1] of 9.83 ± 2.2 h. Besides, the “Effect on PLT (↓ decrease)” value in the data set on platelet (PLT) (SD rats ♀, 6 mg/kg single i.v., 4 h) is recorded as “—”; with platelet (PLT) (SD rats ♀, 6 mg/kg single i.v., D2) it was “↓60%”; in the data set with platelet (PLT) (SD rats ♀, 20 mg/kg single i.v., 4 h), “↓61%”; in the data set with platelet (PLT) (SD rats ♀, 20 mg/kg single i.v., D2), “↓84%”; in the data set on platelet (PLT) (SD rats ♀, 60 mg/kg single i.v., D8), “↓53%”; in the data set with platelet (PLT) (SD rats ♂, 6 mg/kg single i.v., 4 h) it was “↓16%”. Also, the “Effect on PLT (↓ decrease)” value with platelet (PLT) (SD rats ♂, 6 mg/kg single i.v., D2) is recorded as “↓56%”; in the data set with platelet (PLT) (SD rats ♂, 20 mg/kg single i.v., 4 h), “↓51%”; with platelet (PLT) (SD rats ♂, 20 mg/kg single i.v., D2), “↓71%”; with platelet (PLT) (SD rats ♂, 60 mg/kg single i.v., D8) it was “↓17%”. Besides, the “platelet toxicity relative to the control compound” value was “less platelet toxicity” in the data set on platelet (PLT) (6 mg/kg and 20 mg/kg single i.v., 4 h and D2); “less platelet toxicity” in the data set on platelet (PLT) (60 mg/kg single i.v., D8). At BCL-xL proteins, this compound came in with a DC50 of 8.4 nM. The “growth inhibition on MOLT-4 xenograft tumor models, P versus the vehicle control group” value with MOLT-4 xenograft tumors is under 0.0001.

The values are drawn from patent US20240408085A1, “COMPOUND FOR DEGRADATION OF BCL-2 FAMILY PROTEINS AND MEDICAL APPLICATION THEREOF” (XIZANG HAISCO PHARMACEUTICAL CO., LTD., priority 2021, published 2024).
